Experimental data: patent publication US11571412B2, “Thromboxane receptor antagonists in AERD/asthma” (Cumberland Pharmaceuticals Inc., priority 2015, dated 2023)
Entries after “also recorded” stand apart in the source; their conditions may differ. Like-named read-outs stand apart in the source and are kept apart here.

Assays:
Df-treated ptges−/− mice = details: cited from earlier work; for Reaction to aspirin (peak change in RL in response to Lys-ASA challenge): two doses of antagonist prior to challenge with Lys-ASA
CYP2C9 = CYP2C9 (Homo sapiens, UniProt P11712); details: cited from earlier work
Chain of CYP2C9 (P11712 whole entry): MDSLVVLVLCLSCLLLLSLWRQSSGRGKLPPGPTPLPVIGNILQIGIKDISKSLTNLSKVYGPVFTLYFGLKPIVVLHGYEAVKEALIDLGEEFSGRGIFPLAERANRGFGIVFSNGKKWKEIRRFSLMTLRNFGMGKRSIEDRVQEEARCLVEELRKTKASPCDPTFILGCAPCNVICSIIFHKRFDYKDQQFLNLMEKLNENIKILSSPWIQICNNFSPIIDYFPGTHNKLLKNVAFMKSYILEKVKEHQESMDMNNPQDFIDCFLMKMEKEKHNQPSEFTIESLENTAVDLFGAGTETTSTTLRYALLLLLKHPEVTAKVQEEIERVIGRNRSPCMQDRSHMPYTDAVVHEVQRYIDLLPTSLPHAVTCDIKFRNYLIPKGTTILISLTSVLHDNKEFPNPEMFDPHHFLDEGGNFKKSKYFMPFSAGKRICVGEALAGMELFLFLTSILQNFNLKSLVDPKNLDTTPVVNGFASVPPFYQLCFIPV

CYP3A4 = CYP3A4 (Homo sapiens, UniProt P08684); details: cited from earlier work
Chain of CYP3A4 (P08684 whole entry): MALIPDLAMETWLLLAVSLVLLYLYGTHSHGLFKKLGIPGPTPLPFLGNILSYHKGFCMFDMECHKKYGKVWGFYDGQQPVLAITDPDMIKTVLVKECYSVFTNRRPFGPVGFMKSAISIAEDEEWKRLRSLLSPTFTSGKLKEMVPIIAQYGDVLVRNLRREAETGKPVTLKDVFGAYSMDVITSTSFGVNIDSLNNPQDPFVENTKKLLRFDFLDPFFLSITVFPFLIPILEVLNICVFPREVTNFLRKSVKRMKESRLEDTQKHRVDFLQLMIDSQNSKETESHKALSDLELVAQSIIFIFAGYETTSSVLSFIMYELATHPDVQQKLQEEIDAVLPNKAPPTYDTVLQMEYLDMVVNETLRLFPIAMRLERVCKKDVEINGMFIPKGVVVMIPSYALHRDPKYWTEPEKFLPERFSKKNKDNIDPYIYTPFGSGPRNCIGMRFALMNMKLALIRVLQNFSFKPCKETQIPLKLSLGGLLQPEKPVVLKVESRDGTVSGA

[1] = tested on: patients with a history of aspirin exacerbated respiratory disease (AERD); test: Multicenter, double-blind, randomized, placebo-controlled trial of oral ifetroban with aspirin challenge/desensitization (AERD Phase 2a); type: in vivo, human; details: for Incidence of an AIR by Aspirin Dose: AIR population n = 10; for NIFR ≥25% decrease / NIFR ≥25% increase / TNSS ≥25% decrease / TNSS ≥25% increase: ifetroban 200 mg/day oral; for Rescue Medications Mean (SD): to resolve an AIR
Description: Example IV is a multicenter, double-blind, randomized, placebo-controlled trial to determine the safety of oral ifetroban in patients with a history of aspirin exacerbated respiratory disease (AERD).
The eligible subjects were randomized (3:1 active to placebo) in this 7-day study which consisted of a screening, treatment and follow-up period. Any subject receiving at least a partial dose of IMP were not replaced and included in the study analysis. Of 19 subjects enrolled and randomized to study treatment, 14 (74%) were randomized to the ifetroban group and 5 (26%) to the placebo group. Of those 14 randomized to ifetroban, 12 (86%) subjects were treated and 100% of those treated completed treatment. Of 5 subjects randomized to placebo, 4 (80%) started treatment and 100% completed treatment. All treated subjects were analyzed for safety and efficacy variables.
All individuals with AERD will experience a clinical reaction to aspirin, most often at a dose of 81 mg or below. By utilizing a modified Scripps Institute protocol (Hope, Woessner, Simon, & Stevenson, 2009), limiting the study to individuals with stable asthma and no history of life-threatening reaction to COX inhibitors and administering the cysteinyl leukotriene receptor 1 (Cys-LT1) antagonist montelukast to all individuals undergoing the challenge/desensitization, the procedure could safely be done in an ambulatory/outpatient clinic setting. […] Thus, montelukast substantially increases the safety of aspirin challenge/desensitization and it is the standard of care to use montelukast as a pre-treatment for subjects with AERD undergoing a planned aspirin challenge/desensitization.
The primary objective of this study was to determine the safety of oral ifetroban compared to placebo as measured by a ≥20% decrease in Forced Expiratory Volume in 1 second (FEV1) compared to baseline following a dose of Investigational Medicinal Product (IMP) (Study Day 1) or following a dose of IMP but prior to initiation of the aspirin challenge. Secondary objectives were: (i) to determine the safety of oral ifetroban compared to placebo as measured by peak Nasal Inspiratory Flow Rate (NIFR) compared to baseline following a dose of IMP (Study Day 1) or following a dose of IMP but prior to initiation of the aspirin challenge; (ii) to determine the safety of oral ifetroban compared to placebo as measured by the change in Total Nasal Symptom Score (TNSS) compared to baseline following a dose of IMP (Study Day 1) or following a dose of IMP but prior to initiation of the aspirin challenge; (iii) to determine the safety and tolerability of oral ifetroban compared to placebo as measured by treatment-emergent adverse events; (iv) to determine the efficacy of oral ifetroban compared to placebo in decreasing the respiratory reaction to oral aspirin as measured by the change in FEV1 compared to baseline during the aspirin challenge; (v) to determine the efficacy of oral ifetroban compared to placebo in decreasing the respiratory reaction to oral aspirin as measured by the change in NIFR compared to baseline during the aspirin challenge; (vi) to determine the efficacy of oral ifetroban compared to placebo in decreasing the respiratory reaction to oral aspirin as measured by the change in TNSS compared to baseline during the aspirin challenge; (vii) to determine the efficacy of oral ifetroban compared to placebo in decreasing the respiratory reaction to oral aspirin as measured by the amount of rescue medication during the aspirin challenge; (viii) to determine the efficacy of oral ifetroban compared to placebo in decreasing respiratory sensitivity to COX-1 inhibition as measured by the aspirin desensitization dose level; and (ix) to determine the efficacy of oral ifetroban compared to placebo as measured by the number of asthmatic reactions during the Treatment Period. […]

guinea pig trachea = details: in vitro; cited from earlier work
[2] = tested on: TP receptor-induced bronchospasm; details: rats; cited from earlier work
[3] = tested on: TP receptor-induced bronchospasm; details: guinea pigs; cited from earlier work
[4] = Phase A, n = 12, listed as ifetroban
[5] = Phase B (aspirin challenge), n = 12
[6] = aspirin desensitization, n = 12
[7] = column headed Phase C (overall, during the study), n = 12
[8] = subjects that experienced an AIR
[9] = subjects that experienced an AIR, listed as ifetroban

Structure (SMILES): CC(c1cc2ccccc2s1)N(O)C(N)=O (centres unmarked) [zileuton]
- Increase in airway resistance on inhalation of Lysine aspirin (Df-treated ptges−/− mice; Df-treated ptges−/− mice): sensitive to interference

Structure (SMILES): CC(c1ccccc1)C(O)/C=C/C1C2CCC(O2)C1C/C=C\CCCC(=O)O (stereo not drawn) [[1S-(1α, 2α(Z), 3α(1E, 3S*, 4R*), 4α)]]-7-[3-(3-hydroxy-4-phenyl-1-pentenyl)-7-oxabicyclo[2.2.1]hept-2-yl]-5-heptenoic acid]
- Rise in cys-LTs (BAL fluid) (Df-treated ptges−/− mice; ptges−/− mice, Lys-ASA challenge): completely blocked
- Reaction to aspirin (peak change in RL in response to Lys-ASA challenge) (Df-treated ptges−/− mice; ptges−/− mice): completely blocked
- Reaction to aspirin (peak change in RL in response to Lys-ASA challenge) (Df-treated ptges−/− mice; ptges−/− mice, listed as SQ29.548): attenuates aspirin sensitivity

Structure (SMILES): CC(C)(O)c1ccccc1CC[C@@H](SCC1(CC(=O)O)CC1)c1cccc(/C=C/c2ccc3ccc(Cl)cc3n2)c1 [montelukast]
- Inhibition of CYP2C9 (CYP2C9): does not inhibit
- Inhibition of CYP3A4 (CYP3A4): does not inhibit

Structure (SMILES): CCCCCNC(=O)c1coc([C@H]2[C@@H](Cc3ccccc3CCC(=O)O)[C@@H]3CC[C@H]2O3)n1 [Ifetroban, [1S-(1α,2α,3α,4α)]-2-[[3-[4-[(Pentylamino)carbonyl]-2-oxazolyl]-7-oxabicyclo[2.2.1]hept-2-yl]methyl]-benzenepropanoic acid]
- Difference in mean rescue medications, placebo versus ifetroban ([1]; 7.33 (placebo) versus 2.90 (ifetroban) to resolve an AIR): 2.5 fold
- Severity of an AIR: All Symptoms (total number) ([1]; AIR subjects n = 10): 43
- Incidence of an AIR by Aspirin Dose ([1]; Aspirin Dose 30 mg): 0 No. of Subjects (%)
- Incidence of an AIR by Aspirin Dose ([1]; Aspirin Dose 60 mg): 5 (50) No. of Subjects (%)
- Incidence of an AIR by Aspirin Dose ([1]; Aspirin Dose 100 mg): 5 (50) No. of Subjects (%)
- Incidence of an AIR by Aspirin Dose ([1]; Aspirin Dose 150 mg): 0 No. of Subjects (%)
- Incidence of an AIR by Aspirin Dose ([1]; Aspirin Dose 325 mg): 0 No. of Subjects (%)
- NIFR ≥25% decrease ([1]; Phase A, n = 12): 2(17) No. of Subjects (%)
- NIFR ≥25% increase ([1]; Phase A, n = 12): 3(25) No. of Subjects (%)
- TNSS ≥25% decrease ([1]; Phase A, n = 12): 1(8) No. of Subjects (%)
- TNSS ≥25% increase ([1]; Phase A, n = 12): 0 No. of Subjects (%)
- TNSS ≥25% decrease [1, 4]: 1 (8%) No. of Subjects (%)
- TNSS ≥25% increase [1, 4]: No subject
- NIFR ≥25% decrease [1, 5]: 4(33) No. of Subjects (%)
- NIFR ≥25% increase [1, 5]: 7(58) No. of Subjects (%)
- TNSS ≥25% decrease [1, 5]: 2(17) No. of Subjects (%)
- TNSS ≥25% increase [1, 5]: 3(25) No. of Subjects (%)
- TNSS ≥25% decrease ([1]; Phase B (aspirin challenge), n = 12, listed as ifetroban): 2 (17%) No. of Subjects (%)
- Average number of symptoms per AIR compared to placebo ([1]; aspirin challenge): comparable between treatment groups
- Bronchial reaction (<20% decrease in FEV1, wheezing, chest tightness) as part of the AIR compared to placebo ([1]; aspirin challenge): at a similar rate
- Ocular manifestation compared to placebo ([1]; aspirin challenge): seems to trend toward the placebo arm more often than on the ifetroban arm
- Upper respiratory effect (rhinorrhea, nasal obstruction, sneezing) compared to placebo ([1]; aspirin challenge): equally as common between treatment groups
- Number of rescue medications compared to placebo (trend) ([1]; aspirin challenge (phase B)): apparent trend toward fewer rescue medications in favor of the ifetroban group
- Total Number of Rescue Medications ([1]; aspirin challenge (phase B)): 29
- Aspirin-induced Reaction (AIR): No [1, 6]: 2 (17) No. of Subjects (%)
- Aspirin-induced Reaction (AIR): Yes [1, 6]: 10 (83) No. of Subjects (%)
- Proportion of subjects with worsening NIFR or TNSS compared to placebo ([1]; between treatment groups): no clear trends were observed; also recorded: no appreciable difference was observed
- NIFR ≥25% decrease [1, 7]: 5(42) No. of Subjects (%)
- NIFR ≥25% increase [1, 7]: 9(75) No. of Subjects (%)
- TNSS ≥25% decrease [1, 7]: 2(17) No. of Subjects (%)
- TNSS ≥25% increase [1, 7]: 3(25) No. of Subjects (%)
- NIFR ≥25% increase ([1]; column headed Phase C (overall, during the study), n = 12, listed as ifetroban): 9 (75%) No. of Subjects (%)
- ≥20% decrease in FEV1 (primary endpoint) ([1]; during IMP treatment or the aspirin desensitization process, 200 mg/day): did not cause a ≥20% decrease in FEV1
- Subjects with ≥25% decrease in peak NIFR during both phase A and phase B ([1]; during both phase A and phase B): One
- Improvements to NIFR and TNSS compared to placebo ([1]; during phase A and phase B): observed trend in favor of the ifetroban group toward greater improvements
- Subjects with ≥50% or 75% increase or decrease in TNSS ([1]; during the study): No one
- AEs reported compared to placebo ([1]; ifetroban at 200 mg/day): no increase in AEs
- Safety and tolerability ([1]; ifetroban at 200 mg/day, subjects with a history of AERD): well tolerated and safe
- Symptoms of aspirin desensitization in AERD patients ([1]; ifetroban at a dose of 200 mg/day): may be diminished
- Severity of an AIR: <20% decrease in FEVI (number) ([1]; n = 10): 9
- Severity of an AIR: <20% decrease in FEVI Mean ([1]; n = 10): 0.9
- Severity of an AIR: All Symptoms Median ([1]; n = 10): 4
- Severity of an AIR: All Symptoms Min, Max ([1]; n = 10): 3.7
- Severity of an AIR: Lower Respiratory (number of symptoms) ([1]; n = 10): 13
- Severity of an AIR: Lower Respiratory Mean ([1]; n = 10): 1.3
- Severity of an AIR: Ocular (number of symptoms) ([1]; n = 10): 5
- Severity of an AIR: Ocular Mean ([1]; n = 10): 0.5
- Severity of an AIR: Upper Respiratory (number of symptoms) ([1]; n = 10): 25
- Severity of an AIR: Upper Respiratory Mean ([1]; n = 10): 2.5
- Severity of an AIR: All Symptoms Mean(SD) ([1]; per AIR, n = 10): 4.3(1.34)
- Asthmatic reactions reported or rescue medications used ([1]; phase A prior to aspirin initiation): No asthmatic reactions were reported or rescue medications used
- Initial reactions occurring at the 60-mg aspirin dose ([1]; provoking aspirin dose 60 mg): 50%
- Required Rescue Medication: No [1, 8]: 1 (10) No. of Subjects (%)
- Required Rescue Medication: Yes [1, 8]: 9 (90) No. of Subjects (%)
- Rescue Medications Max [1, 8]: 7
- Rescue Medications Median [1, 8]: 3
- Rescue Medications Min [1, 8]: 0
- Required Rescue Medication: No [1, 9]: 1 (10%) No. of Subjects (%)
- Rescue medication outside the clinic for an asthmatic reaction ([1]; throughout the 7-day study period): no subject required rescue medication outside the clinic
- Mean changes from baseline FEV1 ([1]; throughout the treatment period): below 20%
- Rescue Medications Mean (SD) [1, 8]: 2.90 (2.02)
- Rescue Medications Mean (SD) [1, 9]: 2.90
- Contraction of guinea pig trachea elicited by PGD2 (guinea pig trachea): inhibit contraction
- TP receptor-induced bronchospasm [2]: both preempt and reverse
- TP receptor-induced bronchospasm [3]: both preempt and reverse
